The values that follow come from ChEMBL document CHEMBL6096714, “Advancements in Neurotechnology: Pioneering Brain Monitoring and Stimulation for Enhanced Treatment and Understanding” (ACS Med Chem Lett, 2025).

Active and inactive are the calls of the source. The calls are words filed in the database; no cut-off is given here.

Type in all cases: functional, cell-based
The subject of test [1] is Cortical neurone. The experiment in a line: Neuroplasticity effect in female Wistar rat Cortical neuron assessed as increase in neurite number at 10 uM incubated for […].
The subject of test [2] is Cortical neurone. Briefly: Neuroplasticity effect in female Wistar rat Cortical neuron assessed as increase in neurite length at 10 uM incubated for […].
Test [3] deals with Cortical neurone. Briefly: Neuroplasticity effect in female Wistar rat Cortical neuron assessed as increase in neurite branching at 10 uM incubated for […].

With `c1ccc(COc2ccc3c4c([nH]c3c2)CCNCC4)cc1`, the outcome with Cortical neurone [1], in the test with Cortical neurone [2] and with Cortical neurone [3] was Active.
Take `CN1CCc2[nH]c3cc(Oc4ccccc4)ccc3c2CC1`: the outcome with Cortical neurone [1], in the test with Cortical neurone [2] and in the test on Cortical neurone [3] was Active.
As for `CN1CCc2[nH]c3cc(OCc4ccccc4)ccc3c2CC1`, the result in the test with Cortical neurone [1] and in the test with Cortical neurone [2] was Active. For the same compound, in the test with Cortical neurone [3], the result was inactive.
For the compound `Cn1c2c(c3ccc(OCc4ccccc4)cc31)CCNCC2`, the result in the test with Cortical neurone [1], with Cortical neurone [2] and in the test on Cortical neurone [3] was inactive.
Take `CN1CCc2[nH]c3cc(OCc4ccc(F)cc4)ccc3c2CC1`: the result with Cortical neurone [1], with Cortical neurone [2] and in the test with Cortical neurone [3] was Active.
In the case of `Fc1ccc(Oc2ccc3c4c([nH]c3c2)CCNCC4)cc1`, the outcome with Cortical neurone [1], in the test on Cortical neurone [2] and in the test on Cortical neurone [3] was Active.
